# Measured values reported in PMC9932578 (Clinical Cancer Research, 2022).
# What was measured:
# [1] = 60 mg QD NHL cohort, n = 1/18
# [2] = system: gene expression (Hallmark gene sets); experiment: RNA-seq differential expression and GSEA in bone marrow aspirates; type: in vivo, human
smiles,measurement,setting,value
CCNC(=O)C[C@@H]1N=C(c2ccc(Cl)cc2)c2cc(OC)ccc2-n2c(C)nnc21 [molibresib],DLT: thrombocytopenia,[1],6%
same,share of differentially expressed genes downregulated (289/398),[2]; across all 13 patients,72.6%
same,differentially expressed genes shared between NRs and responders,[2]; in vivo,61 genes
same,genes with significant differential expression,[2]; non-responders (NR),884 genes
same,genes with significant differential expression,[2]; responders (CR + PR),107 genes
